Results reported in US5457106A, “Pyridine derivatives, their production and use” (Takeda Chemical Industries, Ltd., priority 1991, dated 1995).
Structures can show the parent of a compound that is named as a salt.

What was measured:
[1] = biological target: T1, cyclooxygenase (Rattus norvegicus, UniProt Q63921); test: Cyclooxygenase inhibitory activity (HHT formation from arachidonic acid in rat platelet-rich plasma); format: cell-based, rat (Jcl:wistar)
T1 construct: from tissue; host or cells: platelets in platelet-rich plasma from rat abdominal aorta blood (Jcl:wistar, male)
T1 sequence (Q63921 27-602): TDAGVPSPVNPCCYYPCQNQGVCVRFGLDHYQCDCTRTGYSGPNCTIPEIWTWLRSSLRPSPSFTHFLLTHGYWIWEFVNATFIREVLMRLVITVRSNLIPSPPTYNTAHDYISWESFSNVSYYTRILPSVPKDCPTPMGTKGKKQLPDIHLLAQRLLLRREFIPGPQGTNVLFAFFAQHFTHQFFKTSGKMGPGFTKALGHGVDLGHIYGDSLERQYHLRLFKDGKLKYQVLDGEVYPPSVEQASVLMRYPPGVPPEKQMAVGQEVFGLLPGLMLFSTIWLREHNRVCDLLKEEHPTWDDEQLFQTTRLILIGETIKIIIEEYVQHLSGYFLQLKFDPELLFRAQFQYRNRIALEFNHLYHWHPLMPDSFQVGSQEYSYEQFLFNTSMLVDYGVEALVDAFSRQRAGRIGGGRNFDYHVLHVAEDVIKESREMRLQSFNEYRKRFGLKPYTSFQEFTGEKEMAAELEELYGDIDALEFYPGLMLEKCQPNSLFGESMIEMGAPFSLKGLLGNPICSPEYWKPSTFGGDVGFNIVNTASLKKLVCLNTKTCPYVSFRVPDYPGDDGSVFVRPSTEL

[2] = tested on: Rat carrageenin pedal edema; test: Rat carrageenin pedal edema inhibitory activity; format: in vivo, rat (Jcl: SD); conditions: 50 mg/kg, orally, 3 hours after carrageenin; for inhibition in vivo at 50 mg/kg: Rattus norvegicus, po, 3 h, read-out: Inhibitory percentage (carrageenin pedal edema)
Protocol: Rat Carrageenin Pedal Edema Inhibitory Activity A Jcl: SD male rat (6 weeks old, weight 160-220 g) was used. After the mesurement of the volume of the dexter hind limb foot pad, a test compound suspended in 5% gum arabic solution was administered orally. Immediately after the administration, water was further administered orally so that the total administration volume of liquid became 5 ml/rat. After one hour, 0.05 ml of 1% carrageenin suspension in physiological saline was injected subcutaneously in the foot pad to induce edema [Winter, […]. and Nuss, G. W.: Proc. Soc. exp. […] Three hours after injection of carrageenin, the volume of the dexter limb was measured, and the edema volume was calculated by the difference between the volume after injection and the volume prior to injection.

[3] = tested on: Mouse phenylquinone writhing; test: Mouse phenylquinone writhing inhibitory activity; format: in vivo, mouse (Slc: ICR); conditions: Mus musculus, po, 20 min, 50 mg/kg, orally; read-out: Inhibitory percentage (phenylquinone writhing)
Protocol: Mouse Phenylquinone Writhing Inhibitory Activity A Slc: ICR male mouse (4 weeks, weight 17 to 24 g) was used. A test compound suspended in 5% gum arabic solution was administered orally. After 30 minutes, 0.1 ml/10 g body weight of 0.02% phenylquinone solution in water (dissolved by the aid of 5% ethanol) was injected intraperitoneally, and writhing and stretching responses of individual animals were measured for 20 minutes [Siegmund, E., Cadmus, R. and Lu, G.; Proc. Soc. exp. Biol. Med. 95, (1957)].

[4] = tested on: brewer's yeast induced pyrexia; test: Antipyretic activity (brewer's yeast induced pyrexia); format: in vivo, rat (DS line); conditions: 50 mg/kg, orally; for Antipyretic activity, .increment. °C.: at peak time
Protocol: Antipyretic Activity Six male DS line rats, 7 weeks old, weighing 200 to 240 g (Nihon Clea) per one group were used. According to the method of Winder et al. (J. Pharmac. Exp. Ther. 138: 405 (1963)), a suspension of 15% brewer's yeast (Sigma) in physiological saline (1 ml/100 g, b.w.) was injected subcutaneously at 16 hours before measurement of the body temperature to induce pyrexia. After injection of yeast, only water was provided, and each rat was bred separately in a five duplicate cage. At 16, 17 and 18 hours after yeast injection, the rectal temperature was measured by a thermistor thermometer (Takara Kogyo K.K.), and this was taken as the basal body temperature. […] Animals having the body temperature of not lower than 38.5° C. at 18 hours after yeast injection were selected, and a test compound was administered orally (1 ml/100 g, b.w.). As a control, only the solvent was provided. Upon administration, the body temperature of the control group and that of the test compound-administered group were adjusted to the same temperature. The rectal temperature was measured every hour till five hours after administration.

[5] = tested on: ART (antigen-responding T-cell); test: In vitro ART (antigen-responding T-cell) proliferation test; format: cell-based, Lewis rat; conditions: Rattus norvegicus, T-cell, read-out: % Inhibition of ART growth

Row | IC50 [1] | Structure (SMILES) | inhibition in vivo at 50 mg/kg [2] | inhibition in vivo at 50 mg/kg [3] | Antipyretic activity, peak time [4] | Antipyretic activity, .increment. °C. [4] | inhibition at 1 µM [5] | inhibition at 10 µM [5] | Antipyretic activity, .increment. °C. ([4]; hydrochloride) | Antipyretic activity, peak time ([4]; hydrochloride) | Inhibitory percentage (carrageenin pedal edema) [2]
1 | 13.1 µM | O=C(NCCCSc1ccncc1)c1ccccn1 [Example 42, 4-[3-(2-picolynoylamino)propylthio]pyridine] | 34% | 51% | 1 h | -0.80 °C | – | – | – | – | –
2 | 13 µM | O=C(NCCCSc1ccncc1)c1ccncc1 [Example 43, 4-[3-(4-picolynoylamino)propylthio]pyridine] | 24% | 48% | – | – | – | – | – | – | –
3 | 7.9 µM | O=C(NCCCSc1ccncc1)c1cccs1 [Example 46, 4-[3-(2-thenoylamino)propylthio]pyridine] | 39% | 66% | 4 h | -4.08 °C | – | – | – | – | –
4 | – | O=C(NCCCSc1ccccn1)c1cccs1 [Example 47, 2-[3-(thenoylamino)propylthio]pyridine] | 25% | 47% | – | – | – | – | – | – | –
5 | 9 µM | O=C(NCCCSc1ccncc1)c1ccsc1 [Example 54, 4-[3-(3-thiophenecarbonylamino)propylthio]pyridine] | 45% | 58% | 5 h | -3.50 °C | – | – | – | – | –
6 | 8.7 µM | O=C(Cc1cccs1)NCCCSc1ccncc1 [Example 55, 4-[3-(2-thienylacetylamino)propylthio]pyridine] | 41% | 58% | – | – | – | – | – | – | –
7 | 3.6 µM | O=C(NCCCSc1ccncc1)c1cc2ccccc2s1 [Example 57, 4-[3-(thianaphtene-2-carbonylamino)propylthio]pyridine] | 35% | 71% | 4 h | -1.28 °C | – | – | – | – | –
8 | 7.9 µM | O=C(NCCCSc1ccncc1)c1cc(Br)c(Br)s1 [Example 58, 4-[3-(4,5-dibromothenoylamino)propylthio]pyridine] | 48% | 34% | – | – | – | – | – | – | –
9 | 3.5 µM | Cc1ccc(C(=O)NCCCSc2ccncc2)s1 [Example 59, 4-[3-(5-methylthenoylamino)propylthio]pyridine] | 35% | 49% | – | – | – | – | – | – | –
10 | – | O=C1c2ccccc2C(=O)N1CSc1cccnc1 [Example 63, 3-(phthalimidomethylthio)pyridine] | 34% | 56% | – | – | – | – | – | – | –
11 | – | O=C1c2ccccc2C(=O)N1COc1ccncc1 [Example 65, 4-(phthalimidomethyloxy)pyridine] | 39% | 80% | 4 h | -0.62 °C | – | – | – | – | –
12 | – | O=C(N(CCCSc1ccncc1)Cc1cccs1)C(F)(F)F [Example 68, 4-[3-[N-(2-thienylmethyl)-N-trifluoroacetylamino]propylthio]pyridine hydrochloride] | 23% | 50% | – | – | – | – | – | – | –
13 | 4.9 µM | CC(=O)N(CCCSc1ccncc1)Cc1cccs1 [Example 90] | 21% | 53% | – | – | 34% | 49% | – | – | –
14 | 3.2 µM | O=C1c2ccccc2CN1CCCOc1ccncc1 [Example 101, 4-[3-(isoindolin-1-on-2-yl)propyloxy]pyridine] | 26% | 66% | – | – | 39% | 12% | – | – | –
15 | 5.1 µM | O=C1c2ccccc2CN1CCSc1ccncc1 [Example 105, 4-[2-(isoindolin-1-on-2-yl)ethylthio]pyridine] | 31% | 59% | – | – | -4% | -49% | – | – | –
16 | 11 µM | O=C1c2ccccc2C(O)N1CCCSc1ccncc1 (stereo not shown) [Example 110, 4-[3-(3-hydroxyisoindolin-1-on-2-yl)propylthio]pyridine] | 44% | – | – | – | -21% | 1% | – | – | –
17 | 13 µM | CNC(=O)c1ccccc1C(=O)NCSc1ccncc1 [Example 112, 4-[(2-methylcarbamoylbenzoyl)aminomethylthio]pyridine] | 42% | – | 3 h | -1.58 °C | – | – | – | – | –
18 | – | Cl.O=C1c2ccccc2C(=O)N1CCCOc1ccncc1 [Example 113, 4-(3-phthalimidopropyloxy)pyridine hydrochloride] | 35% | – | 4 h | -0.82 °C | – | – | – | – | –
19 | – | O=C1c2ccccc2C(=O)N1CCCCOc1ccncc1 [Example 114, 4-(4-phthalimidobutyloxy)pyridine hydrochloride] | 28% | – | – | – | – | – | -1.14 °C | 4 h | –
20 | – | Cl.O=C1c2ccccc2C(=O)N1COc1ccncc1 [Example 116, 4-phthalimidomethyloxypyridine hydrochloride] | – | – | 3 h | -0.63 °C | 10% | 31% | – | – | 45%
21 | – | Cl.Cl.O=C(NCCCOc1ccncc1)c1ccccn1 [Example 126, 4-[3-(2-picolinoylamino)propyloxy]pyridine dihydrochloride] | 30% | – | 2 h | -1.21 °C | – | – | – | – | –
